Test results: article PMC12130737, “Taurine Alleviates Pancreatic β‐Cell Senescence by Inhibition of p53 Pathway” (Journal of Diabetes, 2025)
Residue numbers refer to the chain shown, from its start.

Experiments:
CDKN2AIP [1] = molecular target: T1, CDKN2AIP (Rattus norvegicus, UniProt Q5U2X0); assay: DARTS (proteinase K protection, immunoblot); assay type: biochemical; settings: INS-1E cell lysate, taurine 0-200 uM, pH 7.5, 1 h on ice
T1 construct: endogenous protein in INS-1E cell lysate
T1 sequence (Q5U2X0 2-570): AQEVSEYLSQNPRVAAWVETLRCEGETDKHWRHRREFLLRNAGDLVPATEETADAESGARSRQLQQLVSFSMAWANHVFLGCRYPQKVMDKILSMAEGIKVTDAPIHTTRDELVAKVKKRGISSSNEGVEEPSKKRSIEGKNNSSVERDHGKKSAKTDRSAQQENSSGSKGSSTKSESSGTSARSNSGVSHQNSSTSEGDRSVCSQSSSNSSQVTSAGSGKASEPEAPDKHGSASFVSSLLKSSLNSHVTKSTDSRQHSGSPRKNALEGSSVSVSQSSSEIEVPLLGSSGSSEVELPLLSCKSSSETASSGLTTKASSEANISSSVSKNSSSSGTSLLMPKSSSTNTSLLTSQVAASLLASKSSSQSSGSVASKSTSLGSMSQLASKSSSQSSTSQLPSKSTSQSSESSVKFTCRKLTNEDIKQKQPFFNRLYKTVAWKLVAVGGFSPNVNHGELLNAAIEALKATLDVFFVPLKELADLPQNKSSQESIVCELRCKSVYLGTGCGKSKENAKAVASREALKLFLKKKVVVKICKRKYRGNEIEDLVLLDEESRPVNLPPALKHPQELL

[2] = molecular target: T2, CDKN2AIP recombinant protein (Homo sapiens, UniProt Q9NXV6); assay: DARTS (proteinase K protection of recombinant protein); assay type: binding
T2 construct: recombinant human CDKN2AIP
T2 sequence (Q9NXV6 2-580): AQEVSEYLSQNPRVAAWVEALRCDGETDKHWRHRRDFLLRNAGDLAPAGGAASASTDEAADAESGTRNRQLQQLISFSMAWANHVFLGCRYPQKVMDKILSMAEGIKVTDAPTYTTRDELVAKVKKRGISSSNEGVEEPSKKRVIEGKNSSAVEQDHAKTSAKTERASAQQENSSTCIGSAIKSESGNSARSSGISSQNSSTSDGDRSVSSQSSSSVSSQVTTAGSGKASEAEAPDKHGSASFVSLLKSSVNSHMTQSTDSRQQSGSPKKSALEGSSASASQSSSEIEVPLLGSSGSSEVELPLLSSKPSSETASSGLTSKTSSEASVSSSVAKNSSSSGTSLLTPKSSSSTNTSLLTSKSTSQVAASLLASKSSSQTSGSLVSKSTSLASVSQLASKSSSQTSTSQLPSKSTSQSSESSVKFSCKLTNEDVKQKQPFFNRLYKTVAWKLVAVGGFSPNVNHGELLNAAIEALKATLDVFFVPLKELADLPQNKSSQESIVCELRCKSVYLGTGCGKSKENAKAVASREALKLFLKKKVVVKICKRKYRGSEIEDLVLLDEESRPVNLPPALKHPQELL

SLC6A6 [3] = molecular target: T3, SLC6A6 (Rattus norvegicus, UniProt P31643); assay: DARTS (proteinase K protection, immunoblot); assay type: biochemical; settings: INS-1E cell lysate, taurine 0-200 uM, pH 7.5, 1 h on ice; positive control
T3 construct: endogenous protein in INS-1E cell lysate
T3 sequence (P31643 1-621): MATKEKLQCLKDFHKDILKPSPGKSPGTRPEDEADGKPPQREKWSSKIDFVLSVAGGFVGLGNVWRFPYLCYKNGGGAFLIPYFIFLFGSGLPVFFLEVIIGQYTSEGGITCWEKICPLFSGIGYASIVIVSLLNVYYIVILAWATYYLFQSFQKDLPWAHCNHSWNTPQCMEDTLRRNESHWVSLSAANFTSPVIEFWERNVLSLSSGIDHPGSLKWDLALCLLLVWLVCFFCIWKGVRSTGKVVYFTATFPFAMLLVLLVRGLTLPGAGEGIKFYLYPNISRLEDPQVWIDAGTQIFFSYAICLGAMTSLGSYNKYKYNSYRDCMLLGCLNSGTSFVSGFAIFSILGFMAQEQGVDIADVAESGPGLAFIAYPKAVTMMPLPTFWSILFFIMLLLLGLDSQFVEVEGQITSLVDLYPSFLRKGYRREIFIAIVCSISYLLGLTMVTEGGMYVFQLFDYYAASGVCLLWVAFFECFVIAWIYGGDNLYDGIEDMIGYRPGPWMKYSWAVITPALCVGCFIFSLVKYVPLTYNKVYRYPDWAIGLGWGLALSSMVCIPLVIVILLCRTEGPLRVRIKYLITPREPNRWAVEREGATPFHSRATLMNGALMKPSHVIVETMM

GFP-tagged CDKN2AIP [4] = molecular target: T4, GFP-tagged CDKN2AIP (Homo sapiens, UniProt Q9NXV6); assay: DARTS (proteinase K protection, immunoblot); assay type: biochemical; settings: HEK293 cell lysate, GFP-tagged wild type
T4 construct: GFP-tagged human CDKN2AIP expressed in HEK293 cells, cell lysate
T4 sequence (Q9NXV6 2-580): T2 sequence (Q9NXV6 2-580)

SLC6A6 [5] = molecular target: T5, SLC6A6 (Mus musculus, UniProt O35316); assay: DARTS (proteinase K protection, immunoblot); assay type: biochemical; settings: MIN6 cell lysate, taurine 0-200 uM, pH 7.5, 1 h on ice; positive control
T5 construct: endogenous protein in MIN6 cell lysate
T5 sequence (O35316 1-621): T3 sequence (P31643 1-621) with Q151H, A188T, H212N, N281D, E286G, V435L, I521V, V555L, A602V

CDKN2AIP [6] = molecular target: T6, CDKN2AIP (Mus musculus, UniProt Q8BI72); assay: DARTS (proteinase K protection, immunoblot); assay type: biochemical; settings: MIN6 cell lysate, taurine 0-200 uM, pH 7.5, 1 h on ice
T6 construct: endogenous protein in MIN6 cell lysate
T6 sequence (Q8BI72 2-563): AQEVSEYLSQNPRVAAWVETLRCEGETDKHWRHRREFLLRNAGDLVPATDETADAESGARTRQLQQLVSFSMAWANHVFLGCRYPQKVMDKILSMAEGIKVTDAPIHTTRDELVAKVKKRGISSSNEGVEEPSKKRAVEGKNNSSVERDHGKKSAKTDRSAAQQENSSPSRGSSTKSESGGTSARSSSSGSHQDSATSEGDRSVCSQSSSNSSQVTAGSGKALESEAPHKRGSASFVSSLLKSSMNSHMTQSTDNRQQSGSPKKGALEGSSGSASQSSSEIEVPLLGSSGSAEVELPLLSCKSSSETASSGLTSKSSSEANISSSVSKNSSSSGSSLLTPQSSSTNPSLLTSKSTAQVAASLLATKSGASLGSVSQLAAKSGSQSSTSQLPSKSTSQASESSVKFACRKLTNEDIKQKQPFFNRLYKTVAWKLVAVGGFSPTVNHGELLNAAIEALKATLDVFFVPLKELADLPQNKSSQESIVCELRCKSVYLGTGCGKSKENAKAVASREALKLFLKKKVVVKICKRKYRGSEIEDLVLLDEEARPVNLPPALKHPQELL

GFP-tagged CDKN2AIP [7] = molecular target: T7, GFP-tagged CDKN2AIP (Homo sapiens, UniProt Q9NXV6, P484A/L485A/K486A); assay: DARTS (proteinase K protection, immunoblot); assay type: biochemical; settings: HEK293 cell lysate, GFP-tagged triple mutant
T7 construct: GFP-tagged human CDKN2AIP expressed in HEK293 cells, cell lysate
T7 sequence (Q9NXV6 2-580 P484A/L485A/K486A): T2 sequence (Q9NXV6 2-580) with P483A, L484A, K485A

SMILES: NCCS(=O)(=O)O [taurine, 2‐aminoethanesulfonic acid]
- DARTS (proteinase K protection, immunoblot) (CDKN2AIP [1]): taurine dose‐dependently prevented protease K‐induced degradation of CDKN2AIP and SLC6A6
- DARTS (proteinase K protection of recombinant protein) [2]: Taurine also prevented proteinase K‐induced degradation of the CDKN2AIP recombinant protein
- DARTS (proteinase K protection, immunoblot) (SLC6A6 [3]): taurine dose‐dependently prevented protease K‐induced degradation of CDKN2AIP and SLC6A6
- DARTS (proteinase K protection, immunoblot) (GFP-tagged CDKN2AIP [4]): DARTS experiments demonstrated that taurine bound to wild‐type CDKN2AIP
- DARTS (proteinase K protection, immunoblot) (SLC6A6 [5]): taurine dose‐dependently prevented protease K‐induced degradation of CDKN2AIP and SLC6A6
- DARTS (proteinase K protection, immunoblot) (CDKN2AIP [6]): taurine dose‐dependently prevented protease K‐induced degradation of CDKN2AIP and SLC6A6
- DARTS (proteinase K protection, immunoblot) (GFP-tagged CDKN2AIP [7]): taurine bound to wild‐type CDKN2AIP but not the CDKN2AIP‐triple mutant
